# pEC50: −log10 of the molar value. Calls of active or inactive are those of the source. The calls are words filed in the database; no cut-off is given here. Bridge positions count the residues as written; N and C are the ends. Peptide text beside a SMILES is read from it. I, II: the chains in the order shown. * marks the point of attachment. Octanoyl = CCCCCCCC(=O)*
# Experiments:
# Escherichia coli [1] = assay: Antibacterial activity against Escherichia coli ATCC 25922 after 24 hrs by checkerboard assay in presence of gentamicin; assay type: functional
# Pseudomonas aeruginosa [2] = assay: Antibacterial activity against Pseudomonas aeruginosa DM23257 after 24 hrs by broth microdilution method; assay type: functional; conditions: DM23257, 24 h
# Escherichia coli [3] = assay: Antibacterial activity against Escherichia coli ATCC 25922 after 24 hrs by checkerboard assay in presence of kanamycin; assay type: functional
# [4] = Toxicity in human corneal fibroblasts assessed as cell viability at > 2000 uM after 4 hrs by LDH assay; assay type: cell-based; conditions: fibroblast
# Klebsiella pneumoniae [5] = assay: Antibacterial activity against Klebsiella pneumoniae DS07955 after 24 hrs by broth microdilution method; assay type: functional; conditions: DS07955, 24 h
# Pseudomonas aeruginosa [6] = assay: Antibacterial activity against Pseudomonas aeruginosa ATCC 9027 after 24 hrs by broth microdilution method; assay type: functional; conditions: ATCC 9027, 24 h
# Mus musculus [7] = assay: Corneal toxicity in mouse at 6.25 mg/kg, iv measured 24 hrs after last dose; assay type: organism-based; conditions: in vivo
# Pseudomonas aeruginosa [8] = assay: Induction of cytoplasmic membrane depolarization in Pseudomonas aeruginosa DM23155 at 4 times MIC after 1 hr by fluorescence assay; assay type: functional, organism-based
# Escherichia coli [9] = assay: Antibacterial activity against Escherichia coli ATCC 25922 after 24 hrs by checkerboard assay in presence of erythromycin; assay type: functional
# Escherichia coli [10] = assay: Antibacterial activity against Escherichia coli ATCC 25922 after 24 hrs by checkerboard assay in presence of nalidixic acid; assay type: functional
# [11] = Induction of calcein leakage from DOPE/DOPG artificial membrane at 1:32 ratio of compound to lipid by fluorescence assay; assay type: physicochemical
# Mus musculus [12] = assay: Corneal toxicity in mouse at 100 mg/kg, ip measured 24 hrs after last dose; assay type: organism-based; conditions: in vivo
# Escherichia coli [13] = assay: Antibacterial activity against Escherichia coli DM17528 after 24 hrs by broth microdilution method; assay type: functional; conditions: DM17528, 24 h
# Klebsiella pneumoniae [14] = assay: Antibacterial activity against Klebsiella pneumoniae DM4299 after 24 hrs by broth microdilution method; assay type: functional; conditions: DM4299, 24 h
# Klebsiella pneumoniae [15] = assay: Antibacterial activity against Klebsiella pneumoniae DS16260 after 24 hrs by broth microdilution method; assay type: functional; conditions: DS16260, 24 h
# Pseudomonas aeruginosa [16] = assay: Antibacterial activity against Pseudomonas aeruginosa DM23155 after 24 hrs by checkerboard assay in presence of streptomycin; assay type: functional
# Pseudomonas aeruginosa [17] = assay: Antibacterial activity against Pseudomonas aeruginosa DM23376 after 24 hrs by broth microdilution method; assay type: functional; conditions: DM23376, 24 h
# Pseudomonas aeruginosa [18] = assay: Antibacterial activity against Pseudomonas aeruginosa DR4877 after 24 hrs by broth microdilution method; assay type: functional; conditions: DR4877, 24 h
# Escherichia coli [19] = assay: Antibacterial activity against Escherichia coli ATCC 25922 after 24 hrs by broth microdilution method; assay type: functional; conditions: ATCC 25922, 24 h
# Pseudomonas aeruginosa [20] = assay: Antibacterial activity against Pseudomonas aeruginosa DM23155 assessed as log reduction of viable count MIC up to 24 hrs by time-kill assay; assay type: functional, organism-based
# Escherichia coli [21] = assay: Antibacterial activity against Escherichia coli ATCC 25922 after 24 hrs by checkerboard assay in presence of streptomycin; assay type: functional
# Pseudomonas aeruginosa [22] = assay: Antibacterial activity against Pseudomonas aeruginosa DM23155 after 24 hrs by broth microdilution method; assay type: functional; conditions: DM23155, 24 h
# Klebsiella pneumoniae [23] = assay: Antibacterial activity against Klebsiella pneumoniae DU31158 after 24 hrs by broth microdilution method; assay type: functional; conditions: DU31158, 24 h
# Escherichia coli [24] = assay: Antibacterial activity against Escherichia coli DS17232 after 24 hrs by broth microdilution method; assay type: functional; conditions: DS17232, 24 h
# Pseudomonas aeruginosa [25] = assay: Antibacterial activity against Pseudomonas aeruginosa DM23155 after 24 hrs by checkerboard assay in presence of kanamycin; assay type: functional
# Pseudomonas aeruginosa [26] = assay: Antibacterial activity against Pseudomonas aeruginosa DM23155 assessed as log reduction of viable count at 2 times MIC after 30 mins by time-kill assay relative to control; assay type: functional
# Pseudomonas aeruginosa [27] = assay: Antibacterial activity against Pseudomonas aeruginosa DR18531 after 24 hrs by broth microdilution method; assay type: functional; conditions: DR18531, 24 h
# Pseudomonas aeruginosa [28] = assay: Antibacterial activity against Pseudomonas aeruginosa DM23155 assessed as log reduction of viable count at 2 times MIC after 24 hrs by time-kill assay; assay type: functional, organism-based
# [29] = Toxicity in New Zealand white rabbit erythrocytes assessed as hemolytic activity after 60 mins; assay type: cell-based, Oryctolagus cuniculus; conditions: erythrocyte, 1 h
# [30] = Induction of calcein leakage from DOPC artificial membrane at 1:32 ratio of compound to lipid by fluorescence assay; assay type: physicochemical
# Pseudomonas aeruginosa [31] = assay: Antibacterial activity against Pseudomonas aeruginosa DM23155 after 24 hrs by checkerboard assay in presence of nalidixic acid; assay type: functional
# Pseudomonas aeruginosa [32] = assay: Induction of cytoplasmic membrane disruption in Pseudomonas aeruginosa DM23155 assessed as membrane integrity at 1 to 2 times MIC after 1 hr by fluorescence assay; assay type: functional
# Lipopolysaccharide (LPS) [33] = assay: Displacement of dansylcadaverine from Escherichia coli 0111:B4 LPS at 15 to 30 uM after 5 mins by high-throughput fluorescence displacement assay
# Pseudomonas aeruginosa [34] = assay: Antibacterial activity against Pseudomonas aeruginosa DM4150R after 24 hrs by broth microdilution method; assay type: functional
# Pseudomonas aeruginosa [35] = assay: Antibacterial activity against Pseudomonas aeruginosa DM23155 after 24 hrs by checkerboard assay in presence of gentamicin; assay type: functional
# Pseudomonas aeruginosa [36] = assay: Antibacterial activity against Pseudomonas aeruginosa DM23155 after 24 hrs by checkerboard assay in presence of erythromycin; assay type: functional
# Pseudomonas aeruginosa [37] = assay: Antibacterial activity against Pseudomonas aeruginosa DU14476 after 24 hrs by broth microdilution method; assay type: functional; conditions: DU14476, 24 h
# Mus musculus [38] = assay: Corneal toxicity in mouse at 1 to 3 mg/ml applied topically 5 times per day measured 24 hrs after last dose; assay type: organism-based; conditions: in vivo, topical_or_ocular
# Klebsiella pneumoniae [39] = assay: Antibacterial activity against Klebsiella pneumoniae DB55301 after 24 hrs by broth microdilution method; assay type: functional; conditions: DB55301, 24 h
# Pseudomonas aeruginosa [40] = assay: Antibacterial activity against Pseudomonas aeruginosa ATCC 27853 after 24 hrs by broth microdilution method; assay type: functional; conditions: ATCC 27853, 24 h
# Lipopolysaccharide (LPS) [41] = assay: Induction of Escherichia coli 0111:B4 LPS neutralization using p-nitroaniline assessed as concentration required to neutralize 50% after 1 hr by limulus amebocyte lysate assay
# Pseudomonas aeruginosa [42] = assay: Antibacterial activity against Pseudomonas aeruginosa DR5790 after 24 hrs by broth microdilution method; assay type: functional; conditions: DR5790, 24 h
# [43] = Toxicity in human corneal fibroblasts assessed as cell viability at > 2000 uM after 4 hrs by ATP luminescent assay; assay type: cell-based; conditions: fibroblast
smiles,measurement,setting,value
CCCCCCCC(=O)N[C@@H](CCCNC(=N)N)C(=O)NCC(=O)N[C@@H](CCCNC(=N)N)C(=O)N[C@@H](CCCCN)C(=O)N[C@H](C(=O)N[C@H](C(=O)N[C@@H](CCCNC(=N)N)C(=O)N[C@@H](CCCNC(=N)N)C(=O)NCCCC[C@H](NC(=O)[C@H](CCCNC(=N)N)NC(=O)[C@H](CCCNC(=N)N)NC(=O)[C@@H](NC(=O)[C@@H](NC(=O)[C@H](CCCCN)NC(=O)[C@H](CCCNC(=N)N)NC(=O)CNC(=O)[C@H](CCCNC(=N)N)NC(=O)CCCCCCC)C(C)C)C(C)C)C(=O)N[C@@H](CCCCN)C(=O)O)C(C)C)C(C)C (I: Octanoyl-RGRKVVRRKK-OH / II: Octanoyl-RGRKVVRR; amide I:9-II:C),fractional inhibitory concentration index (FICI),Escherichia coli [1],0.31
same,MIC,Pseudomonas aeruginosa [2],3 µM
same,fractional inhibitory concentration index (FICI),Escherichia coli [3],0.31
same,Activity,[4],> 2000 µM
same,MIC,Klebsiella pneumoniae [5],10 µM
same,MIC,Pseudomonas aeruginosa [6],3 µM
same,Activity,Mus musculus [7],Non-toxic
same,Activity,Pseudomonas aeruginosa [8],Active
same,fractional inhibitory concentration index (FICI),Escherichia coli [9],0.56
same,fractional inhibitory concentration index (FICI),Escherichia coli [10],0.5
same,Activity,[11],Active
same,Activity,Mus musculus [12],Non-toxic
same,MIC,Escherichia coli [13],10 µM
same,MIC,Klebsiella pneumoniae [14],3 µM
same,MIC,Klebsiella pneumoniae [15],3 µM
same,fractional inhibitory concentration index (FICI),Pseudomonas aeruginosa [16],0.56
same,MIC,Pseudomonas aeruginosa [17],3 µM
same,MIC,Pseudomonas aeruginosa [18],3 µM
same,MIC,Escherichia coli [19],6 µM
same,Activity,Pseudomonas aeruginosa [20],Dose-dependent effect
same,fractional inhibitory concentration index (FICI),Escherichia coli [21],0.31
same,MIC,Pseudomonas aeruginosa [22],3 µM
same,MIC,Klebsiella pneumoniae [23],10 µM
same,MIC,Escherichia coli [24],10 µM
same,fractional inhibitory concentration index (FICI),Pseudomonas aeruginosa [25],0.56
same,FC,Pseudomonas aeruginosa [26],3
same,MIC,Pseudomonas aeruginosa [27],1.5 µM
same,Activity,Pseudomonas aeruginosa [28],Active
same,HC10,[29],> 10000 µg/mL
same,Activity,[30],Active
same,fractional inhibitory concentration index (FICI),Pseudomonas aeruginosa [31],0.5
same,Activity,Pseudomonas aeruginosa [32],>80%
same,Activity,Lipopolysaccharide (LPS) [33],121%
same,MIC,Pseudomonas aeruginosa [34],3 µM
same,fractional inhibitory concentration index (FICI),Pseudomonas aeruginosa [35],0.38
same,fractional inhibitory concentration index (FICI),Pseudomonas aeruginosa [36],0.56
same,MIC,Pseudomonas aeruginosa [37],3 µM
same,Activity,Mus musculus [38],Non-toxic
same,MIC,Klebsiella pneumoniae [39],10 µM
same,MIC,Pseudomonas aeruginosa [40],3 µM
same,pEC50,Lipopolysaccharide (LPS) [41],4.13
same,MIC,Pseudomonas aeruginosa [42],3 µM
same,Activity,[43],> 2000 µM

# Reference: ChEMBL document CHEMBL3603789, “N-Lipidated Peptide Dimers: Effective Antibacterial Agents against Gram-Negative Pathogens through Lipopolysaccharide Permeabilization” (J Med Chem, 2015)
